Results published in US6624192B1, “Process for production of diacetylrhein” (Madaus AG, priority 1991, dated 2003).

Key:
[1] = system: osteoarthrosis of the spine and of the knee; experiment: Clinical open study with physiotherapy control; format: in vivo, patients
Description: 2. In an open running study with control, there was investigated the action of diacetylrhein against osteoarthrosis of the spine and of the knee in 70 patients (35/35). The dosage administered was 100 mg of diacetylrhein per day. The period of treatment was 60 days and the period of observation was 75 days. The test parameters were pain and movement limitation. The parameters were evaluated according to a score system. The control group comprised 35 patients in the case of which exclusively physiotherapeutic measures were carried out. Physiotherapy was also carried out in the diacetylrhein treatment group.

[2] = system: coxarthrosis and gonarthrosis; experiment: Clinical double-blind study against naproxen with placebo after-treatment; format: in vivo, patients; conditions: for Improvement in all test parameters (pain and movement symptoms, functional limitation, compatibility) in comparison with the initial values: 60 days
Description: 1. The action of diacetylrhein was investigated in coxarthrosis and gonarthrosis in 95 (49/46) patients in a double-blind study against naproxen and subsequent placebo after-treatment. The dosage administered was 50 mg of diacetylrhein twice daily or 750 mg of naproxen daily. The period of treatment was 60 days after a 7 day wash-out phase. The subsequent placebo treatment extended over 60 days.
Test parameters were the pain and movement symptoms according to a score scale, functional limitation and compatibility.

osteoarthrosis = experiment: Clinical randomised double blind compatibility study (oesophagogastroduodenoscopic findings); format: in vivo, patients; conditions: after 4 weeks
Description: 4. The action of diacetylrhein was investigated in 23 patients (12/11) with osteoarthrosis in a randomised double blind study using the “double dummy technique” (compatibility study). The dosage administered was 50 mg of diacetylrhein twice daily and 250 mg of naproxen three times daily. The period of treatment was 4 weeks. The test parameters were the oesophagogastroduodenoscopic findings before and after the therapy. Only patients with normal mucosal findings or with slight mucosal lesions (grade 1) were used in the study.

cotton pellet granuloma = experiment: Cotton pellet granuloma in rats; format: in vivo, rat
Description: The effectiveness of diacetylrhein was determined in chronic inflammation models after oral administration. The following experimental models were used: cotton pellet granuloma in rats and arthrosis in rabbits induced by the intraarticular administration of vitamin A. a) Cotton pellet granuloma in rats. Young sexually mature rats (n=10) were given 25, 50 or 100 mg diacetylrhein/kg or 5 mg indomethacin/kg or 100 mg acetylsalicylic acid/kg daily for 5 days. A control group only treated with water was also used. Implantation of the pellets took place on the first day of treatment.

[3] = system: arthrosis induced by the intraarticular administration of vitamin A; experiment: Vitamin A arthrosis in rabbits; format: in vivo, rabbit; conditions: for Clinical signs of arthrosis (disturbances of movement): 7 rabbits
Description: The effectiveness of diacetylrhein was determined in chronic inflammation models after oral administration. The following experimental models were used: cotton pellet granuloma in rats and arthrosis in rabbits induced by the intraarticular administration of vitamin A. b) Vitamin A arthrosis. An arthrosis-like joint change was initiated in two groups each of 10 rabbits (white New Zealanders) by means of three intraarticular injections of 30,000 IU of Vitamin A over the course of 9 days. 56 days later, 10 animals were treated with 3 mg of diacetylrhein/kg/day for 8 weeks. […] Furthermore, the curative action of diacetylrhein was compared with that of acetylsalicylic acid on each of 7 rabbits which, after 6 days pre-treatment with three times 10,000 IU Vitamin A and a 26 day treatment-free interval for 8 weeks, received either 5 mg of diacetylrhein/kg/day (experimental group) or 15 mg of acetylsalicylic acid/kg/day (positive control group) or remained untreated (negative control group). […] In the negative control group, during the following 8 weeks, the clinical signs of a manifest arthrosis increased.

localised arthrosis = experiment: Clinical single blind crossover study against naproxen; format: in vivo, patients
Description: 3. The action of diacetylrhein in the case of localised arthrosis in 20 patients was investigated in a single blind crossover study against naproxen. […] Subsequently, there followed a three day wash-out phase and a further treatment with 250 mg of naproxen twice daily for a further 20 days. In the second group, the reverse sequence was used. The period of treatment was, in all, 43 days. The test parameters of pain, compression pain, passive movement pain, functional limitation and swelling were determined according to a score system.

gastric mucosa = experiment: Gastric mucosa changes in the rat; format: in vivo
in vivo = conditions: rat, mouse, cat
[4] = crossover study, 43 days in all

Structure (SMILES): CC(=O)Oc1cccc2c1C(=O)c1c(OC(C)=O)cc(C(=O)O)cc1C2=O [diacetylrhein, Diacetylrhein]
- Effect after discontinuation of the treatment ([1]; 100 mg per day for 60 days, observation 75 days): continuing therapeutic effect (hang-over effect)
- Pain and movement limitation (all parameters, score system) versus control group ([1]; 100 mg per day, 60 days, plus physiotherapy, control physiotherapy only): statistically significant superiority
- Improvement in all test parameters (pain and movement symptoms, functional limitation, compatibility) in comparison with the initial values ([2]; 50 mg twice daily, P<0.01): statistically significant rate of improvement
- Night pain and pressure pain after discontinuation, in comparison with the naproxen/placebo collective ([2]; 30 days after discontinuation, 5% level): difference was also verified
- Spontaneous pain and active and passive movement pain after discontinuation, in comparison with the naproxen/placebo collective ([2]; days 90 and 120, placebo after-treatment, P<0.01): statistically significant superiority
- Patients with mucosal lesions of grade 2 (endoscopic findings) (osteoarthrosis; 50 mg twice daily, one case): 10%
- Fresh and dry weights of the granuloma (cotton pellet granuloma; rats n=10, oral, 25, 50 or 100 mg/kg daily for 5 days, in comparison with the control group): significant and clearly dosage-dependent reduction
- Weights of the thymus and adrenals (cotton pellet granuloma; rats, during the 5 days treatment): did not change
- Action on granuloma compared with reference drugs (cotton pellet granuloma; rats, oral, 100 mg diacetylrhein/kg daily for 5 days vs 5 mg indomethacin/kg or 100 mg acetylsalicylic acid/kg): corresponded to about the action of 5 mg indomethacin or of 100 mg acetylsalicylic acid
- Clinical signs of arthrosis (disturbances of movement) ([3]; 5 mg/kg/day for 8 weeks, curative): improved significantly
- Macroscopically and microscopically recognisable joint changes ([3]; rabbits, 3 mg/kg/day for 8 weeks, in comparison with the control group): significantly reduced
- Pain, compression pain, passive movement pain, functional limitation and swelling (score system) in comparison with naproxen (localised arthrosis; 50 mg twice daily for 20 days vs 250 mg naproxen twice daily for 20 days, crossover): superiority
- Clinical laboratory parameters (localised arthrosis; [4]): no changes
- Side effects (localised arthrosis; [4]): No noteworthy side effects
- Erosions of the gastric mucosa (gastric mucosa; single administration of 400 mg/kg): did not give rise to any erosions
- Mucosal damage (gastric mucosa; twice daily 100 mg/kg over 3 days): did not initiate any mucosal damage
- LD50 (in vivo): 119 to 339 mg/kg
- LD50 (in vivo; po): 1900 to 7900 mg/kg

Structure (SMILES): CC(C)Cc1ccc(C(C)C(=O)O)cc1 (stereo not shown) [ibuprofen]
- Erosions of the gastric mucosa (gastric mucosa; in vivo, 200 mg/kg): distinct mucosal damages

Structure (SMILES): COc1ccc2c(c1)c(CC(=O)O)c(C)n2C(=O)c1ccc(Cl)cc1 [indomethacin]
- Mucosal damage (gastric mucosa; in vivo, 10 mg/kg): certainly did
- Diameter of the erosions (gastric mucosa; in vivo, 10 mg/kg, 3 days): 1 to 3 mm
- Erosions of the gastric mucosa (gastric mucosa; in vivo, 20 mg/kg): distinct mucosal damages

Structure (SMILES): CC(=O)Oc1ccccc1C(=O)O [acetylsalicylic acid, reference compound]
- Clinical signs of arthrosis (disturbances of movement) ([3]; 15 mg/kg/day for 8 weeks, positive control group): improved significantly

Structure (SMILES): COc1ccc2cc([C@H](C)C(=O)O)ccc2c1 [naproxen, reference compound]
- Improvement in all test parameters (pain and movement symptoms, functional limitation, compatibility) in comparison with the initial values ([2]; 750 mg daily, P<0.05): statistically significant rate of improvement
- Patients with mucosal lesions of grade 2, 3 and 4 (endoscopic findings) (osteoarthrosis; 250 mg three times daily, 5 patients): 50%
